This is an account of results in ChEMBL document CHEMBL1127540, “Three-dimensional pharmacophores from binding data” (J Med Chem, 1994).

Starred links: 1 amine or outer side, 2 acyl side, 3 side chain; linkers in the order of their positions; H or OH if unused. Non-standard residues stand in square brackets, D forms with d. Residues, ends and D or L forms follow the SMILES beside them. *: point of attachment. Hexanoyl(5S-NH,4S-OH,6-Ph) = O=C(CC[C@H](O)[C@H](Cc1ccccc1)N[*:1])[*:2]; X3 = O=C([C@@H]1CCC[C@@H]1[C@H](O)[C@H](Cc1ccccc1)N[*:1])[*:2]; Ahppa(3S,4S) = O=C(C[C@H](O)[C@H](Cc1ccccc1)N[*:1])[*:2]; X10 = O=C([C@H]1CCCN1C[C@H](Cc1ccc(O)cc1)N[*:1])[*:2]; X1 = O=C(C[C@H](O)[C@H](Cc1ccc(O)cc1)N[*:1])[*:2]; X8 = O=C([C@H]1CCCN1C[C@H](Cc1ccccc1)N[*:1])[*:2]; Cbz = O=C(OCc1ccccc1)*; Boc = CC(C)(C)OC(=O)*

The target in this assay is Human immunodeficiency virus type 1 protease (Human immunodeficiency virus 1, UniProt Q72874). As to the kind of experiment: Binding affinity to HIV-1 protease.
As for `CC(C)[C@H](NC(=O)OCc1ccccc1)C(=O)N[C@@H](Cc1ccccc1)[C@H](O)[C@H](O)[C@H](Cc1ccccc1)NC(=O)[C@@H](NC(=O)OCc1ccccc1)C(C)C`, the Ki was 0.219 nM.

`CC(C)CC(=O)N[C@H](C(=O)N[C@H](C(=O)N[C@@H](CC(C)C)[C@@H](O)CC(=O)N[C@@H](C)C(=O)N[C@@H](CC(C)C)[C@@H](O)CC(=O)O)C(C)C)C(C)C` [PEPSTATIN] had a Ki of 17 nM.

Turning to `COC(=O)[C@@H](NC(=O)[C@@H](NC(=O)CC[C@H](O)[C@H](Cc1ccccc1)NC(=O)[C@H](C)NC(=O)OCc1ccccc1)C(C)C)C(C)C`, the Ki is 120 nM.

Consider `CC(C)(C)OC(=O)N[C@@H](Cc1ccccc1)[C@@H](O)C(=O)N[C@@H](CCC(=O)O)C(=O)N[C@@H](Cc1ccccc1)C(=O)O` (stereo in doubt; 72), for which the inhibition constant (Ki) is 17000 nM.

Take `CC(=O)N[C@H](C(=O)C[C@@H](Cc1ccccc1)[C@H](O)[C@H](Cc1ccccc1)NC(=O)[C@@H](NC(C)=O)C(C)C)C(C)C`: affinity was put at a Ki of 12 nM.

`CC(C)[C@H](NC(=O)NCc1ccccn1)C(=O)N[C@@H](Cc1ccccc1)C(=O)C(F)(F)CCc1ccccc1` had a Ki of 2.88 nM.

On to `CC(C)[C@H](NC(=O)OCc1ccccc1)C(=O)N[C@@H](Cc1ccccc1)C(=O)C(F)(F)CCc1ccccc1` (stereo in doubt; 17), for which the Ki is 5.01 nM.

The compound `COC(=O)[C@@H](NC(=O)[C@@H](NC(=O)CC[C@H](O)[C@H](Cc1ccccc1)NC(=O)[C@H](Cc1ccccc1)NC(=O)[C@H](C)NC(=O)[C@H](C)NC(=O)OCc1ccccc1)C(C)C)C(C)C` (Cbz-AAF[Hexanoyl(5S-NH,4S-OH,6-Ph)]VV-OMe) showed a Ki of 47.9 nM.

In the case of `CC[C@H](C)[C@H](NC(=O)[C@H](C(C)C)[C@@H](O)[C@H](O)[C@H](CC(C)C)NC(=O)OCc1ccccc1)C(=O)NCc1ccccn1`, the inhibitory constant (Ki) was 5.01 nM.

Turning to `COC(=O)[C@@H](NC(=O)[C@@H](NC(=O)CC[C@H](O)[C@H](Cc1ccccc1)NC(=O)[C@H](C)NC(=O)[C@H](C)N)C(C)C)C(C)C` (H-AA[Hexanoyl(5S-NH,4S-OH,6-Ph)]VV-OMe), the affinity, expressed as Ki, was 18.2 nM.

Take `COC(=O)[C@@H](NC(=O)[C@@H](NC(=O)[C@@H]1CCC[C@@H]1[C@H](O)[C@H](Cc1ccccc1)NC(=O)[C@H](C)NC(=O)[C@H](C)NC(=O)[C@@H](N)CO)C(C)C)C(C)C` (H-SAA[X3]VV-OMe): affinity was put at a Ki of 501 nM.

Compound `COC(=O)[C@@H](NC(=O)[C@@H](NC(=O)C[C@H](O)[C@H](Cc1ccc(O)cc1)NC(=O)[C@H](C)NC(=O)[C@H](C)NC(=O)[C@@H](N)CO)C(C)C)C(C)C` (H-SAA[X1]VV-OMe) showed a Ki of 79.4 nM.

As for `COC(=O)[C@@H](NC(=O)[C@@H](NC(=O)C[C@H](O)[C@H](Cc1ccccc1)NC(=O)[C@H](C)NC(=O)[C@H](C)NC(=O)[C@H](CO)NC(=O)OC(C)(C)C)C(C)C)C(C)C` (Boc-SAA[Ahppa(3S,4S)]VV-OMe), the Ki is 1200 nM.

With `CC(C)[C@H](NC(=O)OCc1ccccc1)C(=O)N[C@@H](Cc1ccccc1)[C@@H](O)[C@H](O)[C@H](Cc1ccccc1)NC(=O)OCc1ccccc1`, the Ki is 0.219 nM.

The compound `CC(C)[C@H](NC(=O)OCc1ccccc1)C(=O)N[C@@H](Cc1ccccc1)[C@H](O)[C@@H](O)[C@H](Cc1ccccc1)NC(=O)[C@@H](NC(=O)OCc1ccccc1)C(C)C` gave an inhibitory constant (Ki) of 0.38 nM.

Consider `CCC(C)CNC(=O)[C@H](C(C)C)[C@@H](O)[C@H](O)[C@H](CC(C)C)NC(=O)[C@H](Cc1c[nH]cn1)NC(=O)[C@H](Cc1ccccc1)NC(=O)OC(C)(C)C` (some centres undefined), for which the Ki was 363 nM.

`CC(C)(C)OC(=O)N[C@@H](Cc1ccccc1)[C@@H](O)[C@H](O)[C@H](Cc1ccccc1)NC(=O)OC(C)(C)C` gave an inhibition constant Ki of 39.8 nM.

Consider `CC(C)(C)OC(=O)N[C@@H](Cc1ccccc1)[C@H](O)[C@@H](O)[C@H](Cc1ccccc1)NC(=O)OC(C)(C)C`, for which the Ki was 282 nM.

In turn, `CC(C)(C)OC(=O)N[C@@H](Cc1ccccc1)[C@H](O)CC(=O)N[C@@H](CCC(=O)O)C(=O)N[C@@H](Cc1ccccc1)C(=O)O` had a Ki of 3980 nM.

`COC(=O)[C@@H](NC(=O)[C@@H](NC(=O)C[C@H](O)[C@H](Cc1ccccc1)NC(=O)[C@H](C)NC(=O)[C@H](C)NC(=O)[C@@H](N)CO)C(C)C)C(C)C` (H-SAA[Ahppa(3S,4S)]VV-OMe) had a Ki of 813 nM.

With `CC[C@H](C)[C@H](NC(=O)[C@H](C(C)C)[C@@H](O)[C@H](O)[C@H](CC(C)C)NC(=O)[C@H](Cc1c[nH]cn1)NC(=O)[C@H](Cc1ccccc1)NC(=O)OC(C)(C)C)C(=O)NCc1ccccn1`, the affinity corresponds to a Ki of 28.2 nM.

In turn, `CC(=O)N[C@@H](CO)C(=O)N[C@@H](CCC(N)=O)C(=O)N[C@@H](CC(N)=O)C(=O)N[C@@H](Cc1ccccc1)CN1CCC[C@@H]1C(=O)N[C@H](C(=O)N[C@H](C(N)=O)C(C)C)C(C)C` (stereo in doubt; 71) had a Ki of 14100 nM.

Compound `NC(=O)C[C@H](NC(=O)OCc1ccccc1)C(=O)N[C@@H](Cc1ccccc1)C(=O)C(F)(F)CCc1ccccc1` had a Ki of 2.09 nM.

With `CC[C@H](C)[C@H](NC(=O)[C@H](C(C)C)[C@H](O)[C@H](O)[C@H](CC(C)C)NC(=O)[C@H](Cc1c[nH]cn1)NC(=O)[C@H](Cc1ccccc1)NC(=O)OC(C)(C)C)C(=O)NCc1ccccn1`, the Ki was 501 nM.

`CC(=O)N[C@@H](CO)C(=O)N[C@@H](C)C(=O)N[C@@H](C)C(=O)N[C@@H](Cc1ccccc1)CN1CCC[C@@H]1C(=O)N[C@H](C(=O)N[C@H](C(N)=O)C(C)C)C(C)C` (Ac-SAA[X8]VV-NH2) gave an inhibition constant (Ki) of 38000 nM.

For the compound `CC(C)(C)OC(=O)N[C@@H](Cc1ccccc1)[C@@H](O)C(=O)N[C@@H](CCC(=O)O)C(=O)N[C@@H](Cc1ccccc1)C(=O)O` (stereo in doubt; 76), the Ki was 24000 nM.

Turning to `COC(=O)[C@@H](NC(=O)[C@@H](NC(=O)C[C@H](O)[C@H](Cc1ccc(O)cc1)NC(=O)[C@H](C)NC(=O)[C@H](C)NC(=O)[C@H](CO)NC(=O)OC(C)(C)C)C(C)C)C(C)C` (Boc-SAA[X1]VV-OMe), the Ki is 182 nM.

Take `CC(C)(C)OC(=O)N[C@@H](Cc1ccccc1)[C@@H](O)CC(=O)N[C@@H](CCC(=O)O)C(=O)N[C@@H](Cc1ccccc1)C(=O)O`: the Ki was 63.1 nM.

Consider `CC(C)(C)OC(=O)N[C@@H](Cc1ccccc1)[C@@H](O)CC(Cc1ccc(OCC(=O)O)cc1)C(=O)N[C@@H]1c2ccccc2C[C@H]1O` (some centres undefined), for which the affinity, expressed as Ki, was 0.339 nM.

Compound `CC(C)(C)OC(=O)N[C@@H](Cc1ccccc1)[C@H](O)[C@H](O)[C@H](Cc1ccccc1)NC(=O)OC(C)(C)C` showed a Ki of 12 nM.

Compound `CC(=O)N[C@@H](CO)C(=O)N[C@@H](CCC(N)=O)C(=O)N[C@@H](CC(N)=O)C(=O)N[C@@H](Cc1ccc(O)cc1)CN1CCC[C@@H]1C(=O)N[C@H](C(=O)N[C@H](C(N)=O)C(C)C)C(C)C` (Ac-SQN[X10]VV-NH2) had a Ki of 12900 nM.

`CC(C)[C@H](NC(=O)OCc1ccccc1)C(=O)N[C@@H](Cc1ccccc1)[C@@H](O)[C@@H](CC(=O)[C@H](NC(=O)OCc1ccccc1)C(C)C)Cc1ccccc1` had a Ki of 3.72 nM.

As for `CC(C)(C)OC(=O)N[C@H](Cc1ccccc1)[C@@H](O)CC(=O)N[C@@H](CCC(=O)O)C(=O)N[C@@H](Cc1ccccc1)C(=O)O`, affinity was put at a Ki of 7080 nM.

`CC[C@H](C)[C@H](NC(=O)[C@@H](C[C@H](O)[C@H](CC(C)C)NC(=O)[C@H](Cc1c[nH]cn1)NC(=O)[C@H](Cc1ccccc1)NC(=O)[C@H]1CCCN1C(=O)[C@H](Cc1c[nH]cn1)NC(=O)OC(C)(C)C)C(C)C)C(=O)N[C@@H](Cc1c[nH]cn1)C(=O)O`: the Ki was 8.71 nM.

The Ki is the equilibrium dissociation constant of an inhibitor or competing ligand from its target. A higher Ki goes with lower affinity.
